The values below come from patent US20080319001A1, “Cancer Treatment Using Specific 3,6,9-Substituted Acridines” (priority 2005, published 2008).

Data set [1] can be described thus: Metabolic stability, cytosol. In kind it is in vitro ADME.
Another data set has as its system human telomerase. To be noted: Read et al. 2001; Harrison et al. 2003; Schultes et al. 2004; cited from earlier work.
For a further data set, the system named is DU145 xenografts. The experiment in a line: DU145 xenograft efficacy study. It is filed as in vivo, mouse. How it is done: The mouse was selected because it is a rodent species and is internationally accepted as the species of choice for human xenograft studies. The nu/nu MF1 strain was selected.
A high dose level of 1 mg/kg given once daily for 10 days was selected for this study. Low and intermediate dose levels of 0.3 and 0.6 mg/kg/day were also selected to aid characterisation of the dose-response profile.
The test articles were reconstituted in 0.9% physiological saline B.P. to the required final concentrations; and where necessary, an organic solvent (e.g. DMSO or ethanol) was used to aid solubilisation of some materials.
Treated mice received a bolus intravenous injection of the test formulation once daily for two weeks (week-days only). A dose-volume of […] bodyweight was be used. Control mice were untreated.
A total of 175 female MF1 mice were obtained from the Biological Research Facility, SGHMS, London. Animals were in a weight range of 26-30 g (6 to 8 weeks of age). Mice were individually identified using a subcutaneously implanted microchip.
The xenografts were prepared from the DU145 cell line (ATCC HTB-81). Cells were grown in accordance with established methodology for this cell line to provide 5×10^6 cells per mouse.
Xenografts were established in the MF1 mice by subcutaneous injection into the right flank of each mouse (5×10^6 cells in […] phosphate buffered saline).
Animals were checked regularly until visible tumours appeared. Tumours were then measured in accordance with the relevant SOP three times per week and tumour volume calculated using the formula: […]
Measurements commenced approximately one week before the day of treatment (Day 0) when the xenograft reached an approximate volume of 0.05 cm^3 (e.g. dimensions of approximately 5×5×4 mm).
Once the tumours were established, mice were allocated into groups of 5 mice using a randomization procedure based on stratified xenograft volume.
Day 0 is defined as the day on which the average tumour volume is between 0.12 to 0.16 cm^3. Relative tumour volume on Day 0 is defined as 1.
Each mouse was observed and tumours measured until the xenografts tripled in volume (3Vo) compared with volume on the day of treatment (Vo). The elapsed period was the volume tripling time (VTT).

The test system of another data set is A549-derived xenografts. The experiment in a line: A549 xenograft combination study. In kind it is in vivo, mouse. As to conditions: single agent (AS1410 1 mg/kg or cisplatin 6 mg/kg), after approximately 60 days. As to the method: AS1410 was reconstituted in 0.9% saline B.P. to the required final concentration (0.331 and 0.0993) mg/ml of AS1410 succinate salt for intravenous administration).
The xenografts were prepared from the lung carcinoma A549 (ATCC Number CCL-185). Cells were grown in accordance with standard operating procedures and established methodology for this cell line to provide 5×10^6 cells per mouse.
A549-derived xenografts were established in 50 female nu/nu MF1 mice respectively by subcutaneous injection into the right flank of each mouse (5×10^6 cells in 100 μl phosphate buffered saline).
Animals were checked regularly until visible tumours appeared. Tumours were then measured in accordance with the relevant SOP regularly and tumour volume calculated using the formula: […]
Once the tumours were established, the mice were allocated into groups of 9 mice using a randomization procedure based on stratified xenograft volume.
Day 0 is defined as the day on which the average tumour volume is between 0.04 to 0.1 cm^3. Relative tumour volume on Day 0 is defined as 1.
Each mouse was observed and tumours measured until the xenografts tripled (3V0) in volume compared with volume on the day of treatment (V0). The elapsed period is the volume tripling time (VTT).
AS1410 was given by slow bolus intravenous injection. For AS1410 a dose volume 5 μl/g bodyweight was used. Control mice were untreated. […]

Take `CN(C)c1ccc(Nc2c3ccc(NC(=O)CCN4CCCC4)cc3nc3cc(NC(=O)CCN4CCCC4)ccc23)cc1` [BSG01]: the “Cytosol (t = 30)” value in data set [1] (t = 30) was determined as 3.5. In addition, the “Cytosol (t = 60)” value in data set [1] (t = 60) amounted to 6.3. For the same compound, in the data set with human telomerase, the “in vitro inhibitory activity against human telomerase” value is reported as “potent in vitro inhibitory activity”.
As to `O=C(CCN1CCCC1)Nc1ccc2c(NCc3ccc(F)c(F)c3)c3ccc(NC(=O)CCN4CCCC4)cc3nc2c1` [BSG17, N-(9-(3,4-Difluoro-benzylamino)-6-(3-pyrolidin-1-yl-propionamide)-acridin-3-yl)-3-pyrrolidin-1-yl-propionamide], the values for the T-C value with DU145 xenografts (0.3 mg/kg/day iv), in the data set with DU145 xenografts (0.6 mg/kg/day iv) and with DU145 xenografts (1 mg/kg/day iv) were 7 days, 11.6 days and 11 days, respectively. Also, the “xenograft response” value in the data set with DU145 xenografts (0.3, 0.6 and 1.0 mg/kg/day iv, compared with BSG01) was “clear dose response and effects at all three dose levels”. The relative tumour volume result with A549-derived xenografts is reported as “about 5”.
